Values quoted from earlier work in US6790668B1, “Monitoring patient compliance and bioavailability of drugs by deproteinizing body fluids” (Fundacao Oswaldo Cruz - Fiocruz, priority 1998, dated 2004).

What was measured:
[1] = organic solvents; acid pH water
[2] = human body; the rest by the kidneys

- Share of the drug eliminated in the bile [2]: about 80%
SMILES: CO[C@H]1/C=C/O[C@@]2(C)Oc3c(C)c(O)c4c(O)c(c(/C=N/N5CCN(C)CC5)c(O)c4c3C2=O)NC(=O)/C(C)=C\C=C\[C@H](C)[C@H](O)[C@@H](C)[C@@H](O)[C@@H](C)[C@H](OC(C)=O)[C@@H]1C [rifampicin]
- Solubility [1]: soluble both in organic solvents and in acid pH water
